The nature of series [1]: in vitro. Conditions: mouse.
Procedure: (§1) The MTT reagent was reduced to the purple crystalline formazan by the mitochondrial enzyme of surviving cells, and the crystals were dissolved by DMSO (Dimethyl Sulfoxide).
(§2) Subsequently, the absorbance of OD570 nm was measured. The color depth was proportional with the number of viable cells. […] After 3-5 hours, the cells were plated on 96-well plates and added to the sample (100 μl per well). After incubation for 24 hours, the MTT reagent (MTT 5 mg/ml dissolved in PBS) was reacted for 1 to 2 hours. The culture medium in the 96-well dish was blotted with the MTT reagent and dissolved in 100 μl of DMSO. The absorbance values were read at a wavelength of 570 nm with an ELISA kit.
A short description of series [2]: in vitro. Conditions: mouse. This is another data set of the same source.
Procedure: as §1, §2
A short description of series [3]: Cell viability analysis (MTT) cytotoxicity, B16-F10 cells. Conditions: mouse, B16-F10 cells (ATCC CRL-6475).
Procedure: as §1, §2
Series [4] in a line: Agar coagulation time with cosmetic materials (3% agar). Conditions: for Agar coagulation time with increase of sample concentration vs control group: FIGS. 2-6, mean±SEM, N=3.
Procedure: The agar gel solution is dissolved to form a clear solution by changing the temperature in the range from a room temperature to 25° C. The agar gel solution is held in a carrier, such as a bottle, or a test tube, and is tilted at about 30°-60° (for example, 45°) from the vertical orientation. The coagulation time is defined when the agar gel solution ceases to flow.
The subject method utilizes a carrier (such as, for example, a test tube) to observe the effect of added cosmetic material to the coagulation of agar, so as to assess the toxicity of cosmetic materials. In this example, the present invention further evaluates the relevance of the cosmetic material toxicity based on the agar coagulation time with the cytotoxic IC50 testing.
The agar was prepared to be used as the main application material (the plant gel material) for the present invention, and a sample was prepared to test the coagulation time of the agar (for 25 samples under study) as described above. For example, the concentrations of agar solutions are 1%, 2%, 3%, 4%, 5%, and 6% (w/w). In one of the examples, 3% agar solution was heated to 100° C. to be dissolved, and then 100 ml or 200 ml of agar solution was added to a bottle or a test tube to be mixed with various samples (100 ml, or 200 ml). The bottle, or the test tube, were tilted about 45° relative to a plane each 30 seconds, to observe whether there is coagulation, and the cooling from 100° C. to room temperature and corresponding coagulation times were recorded.
The nature of series [5]: Cell viability analysis (MTT) cytotoxicity, skin 3T3 cells. Conditions: mouse, skin 3T3 cells (ATCC CCL-92).
Procedure: as §1, §2
Series [6] deals with B16-F10 cells.
Procedure: as §1, §2
The subject of series [7] is skin 3T3 cells.
Procedure: as §1, §2
Series [8] relates to B16-F10 cells. Briefly: Cell viability analysis (MTT) cytotoxicity, B16-F10 cells. Conditions: MTT, incubation for 24 hours.
Procedure: as §1, §2
Series [9] has as its system skin 3T3 cells. Briefly: Cell viability analysis (MTT) cytotoxicity, skin 3T3 cells. To be noted: MTT, incubation for 24 hours.
Procedure: as §1, §2
The mark [10] stands for this setting: sample concentration 10 % (w/w).
[11] abbreviates: sample concentration 20 % (w/w).
The mark [12] stands for this setting: sample concentration 30 % (w/w).
[13] abbreviates: sample concentration 15 % (w/w).

Values after ≈ are worked out from the molar mass of the structure shown. Like-named read-outs stand apart in the source and are kept apart here.

By IC50 is commonly meant the concentration that inhibits the measured activity by half. High values mean weaker potency in that assay, low ones greater potency in that assay.

Turning to `Nc1ccccc1O` [2-Aminophenol], the IC50 worked out at 39.3 µg/mL (≈ 0.36 mM) in [1] and 41.2 µg/mL (≈ 0.378 mM) in series [2].

`Nc1cccc(O)c1` [3-Aminophenol]: the IC50 at 24 h in series [3] is 126 µg/mL (≈ 1.16 mM); in [5] it was 308 µg/mL (≈ 2.82 mM). Besides, the Agar coagulation time amounted to 16.489 ± 0.475 min in series [4] (sample concentration 1 % (w/w)); 20.455 ± 0.968 min in series [4] (sample concentration 5 % (w/w)); 24.478 ± 1.280 min in series [4] (setting [10]); 43.671 ± 0.886 min in [4] (setting [11]); 67.444 ± 1.687 min in [4] (setting [12]).

Consider `CCCCCCCCCCCCOS(=O)(=O)O.N` [AmmoniumLauryl Sulfate, Ammonium Lauryl Sulfate], for which the “Agar coagulation time with increase of sample concentration vs control group” value in series [4] was “significantly longer”. The Agar coagulation time in series [4] (sample concentration 1 % (w/w)) was determined as 16.444 ± 0.477 min; in [4] (sample concentration 5 % (w/w)), 18.811 ± 0.987 min; in series [4] (setting [10]), 28.372 ± 1.287 min; in [4] (setting [13]), 39.572 ± 1.077 min.

In the case of `CCCCOC(=O)c1ccc(O)cc1` [Butyl Paraben], the Agar coagulation time in series [4] (sample concentration 1 % (w/w)) is 13.186 ± 0.080 min; in series [4] (sample concentration 5 % (w/w)) it was 13.210 ± 0.079 min; in series [4] (setting [10]), 13.182 ± 0.076 min; in [4] (setting [11]), 13.141 ± 0.050 min; in series [4] (setting [12]), 13.238 ± 0.107 min.

`CC(O)CCO` (centres unmarked) [Butylene Glycol]: in series [6], the “B16-F10 cytotoxicity IC50” value is greater than 10000 µg/mL. In series [2], it took 7320 µg/mL (≈ 81.3 mM) to reach half-maximal inhibition (IC50).

For `OCC(O)CO` [Glycerin], the Agar coagulation time in series [4] (sample concentration 1 % (w/w)) turned out to be 13.220 ± 0.081 min; in series [4] (sample concentration 5 % (w/w)), 13.228 ± 0.053 min; in [4] (setting [10]) it was 13.333 ± 0.087 min; in [4] (setting [11]) it was 13.265 ± 0.067 min; in [4] (setting [12]), 13.322 ± 0.091 min.

As for `OO` [Hydrogen Peroxide], the IC50 at 24 h in [3] was determined as 48.9 µg/mL (≈ 1.44 mM); in [5] it was 63.7 µg/mL (≈ 1.87 mM). Also, the “Classification harmful / not harmful to skin by agar coagulation time compared with cell survival analysis” value in [4] was “harmful to skin”. Further, the Agar coagulation time in [4] (sample concentration 1 % (w/w)) is listed as 18.406 ± 0.121 min; in series [4] (sample concentration 5 % (w/w)), 30.544 ± 0.139 min; in series [4] (setting [10]), 91.139 ± 0.257 min; in [4] (sample concentration 17.5 % (w/w)), greater than 1440 min.

For `CCCCCCCCCCCCCC(=O)OC(C)C` [Isopropyl Myristate], the IC50 at 24 h in [3] and in series [5] was greater than 10000 µg/mL throughout. The Agar coagulation time in [4] (sample concentration 1 % (w/w)) was 13.153 ± 0.056 min; in series [4] (sample concentration 5 % (w/w)), 13.186 ± 0.069 min; in series [4] (setting [10]), 13.185 ± 0.066 min; in series [4] (setting [11]), 13.172 ± 0.065 min; in series [4] (setting [12]), 13.206 ± 0.087 min.

With `CC(O)C(=O)O` (centres unmarked) [Lactic acid], the IC50 at 24 h in series [3] came to 66 µg/mL (≈ 0.733 mM); in [5], 30.5 µg/mL (≈ 0.338 mM). Besides, in series [4], the “Classification harmful / not harmful to skin by agar coagulation time compared with cell survival analysis” value was “harmful to skin”. For the same compound, the Agar coagulation time is 18.299 ± 0.078 min in series [4] (sample concentration 1 % (w/w)); 23.378 ± 0.091 min in series [4] (sample concentration 5 % (w/w)); 43.302 ± 0.099 min in series [4] (setting [10]); 253.306 ± 0.124 min in series [4] (setting [11]); greater than 1440 min in series [4] (setting [12]).

Regarding `Cl.NCCCC[C@H](N)C(=O)O` [Lysine hydrochloride], the Agar coagulation time was determined as 13.241 ± 0.080 min in series [4] (sample concentration 1 % (w/w)); 13.198 ± 0.077 min in series [4] (sample concentration 5 % (w/w)); 13.238 ± 0.100 min in [4] (setting [10]); 13.254 ± 0.119 min in [4] (setting [11]); 13.286 ± 0.147 min in series [4] (setting [12]).

In the case of `Cn1sc(Cl)cc1=O` [Methylchloroisothiazolinone], the “B16-F10 cytotoxicity IC50” value in series [6] was 58 µg/mL. Moreover, in series [7], the “Skin cell 3T3 Cytotoxicity IC50” value amounted to 36.5 µg/mL.

The compound `NCCO` [Monoethanolamine] returned an IC50 at 24 h in series [3] of 3650 µg/mL (≈ 59.7 mM). Also, the Agar coagulation time in [4] (sample concentration 1 % (w/w)) is on record as 13.193 ± 0.067 min; in [4] (sample concentration 5 % (w/w)), 13.251 ± 0.077 min; in [4] (setting [10]), 13.296 ± 0.066 min; in series [4] (setting [11]) it was 13.345 ± 0.088 min; in [4] (setting [12]) it was 13.354 ± 0.083 min.

For `Oc1cccc(O)c1` [Resorcinol], the IC50 at 24 h in [3] was determined as 4930 µg/mL (≈ 44.8 mM); in series [5], 9860 µg/mL (≈ 89.5 mM). Moreover, the Agar coagulation time in series [4] (sample concentration 1 % (w/w)) is on record as 32.821 ± 0.082 min; in [4] (sample concentration 5 % (w/w)) it was 238.511 ± 0.101 min; in series [4] (setting [10]), greater than 4320 min; in [4] (setting [11]) it was greater than 4320 min; in [4] (setting [12]), greater than 4320 min.

Take `O=C(O)c1ccccc1O` [Salicylic Acid]: the figures for the IC50 at 24 h in series [3] and in series [5] were 414 µg/mL (≈ 3 mM) and 1390 µg/mL (≈ 10.1 mM), respectively. Besides, the Agar coagulation time is on record as 13.210 ± 0.087 min in series [4] (sample concentration 1 % (w/w)); 13.221 ± 0.091 min in series [4] (sample concentration 5 % (w/w)); 13.144 ± 0.068 min in [4] (setting [10]); 13.219 ± 0.093 min in series [4] (setting [11]); 13.184 ± 0.063 min in series [4] (setting [12]).

On to `CC(C)CCCC(C)CCCC(C)CCCCC(C)CCCC(C)CCCC(C)C` (centres unmarked) [Squalane], for which the IC50 at 24 h in series [3] was 5420 µg/mL (≈ 12.8 mM); in series [5], greater than 10000 µg/mL. Besides, the Agar coagulation time in series [4] (sample concentration 1 % (w/w)) was determined as 13.260 ± 0.068 min; in series [4] (sample concentration 5 % (w/w)), 13.199 ± 0.073 min; in series [4] (setting [10]) it was 13.276 ± 0.081 min; in series [4] (setting [11]), 13.254 ± 0.077 min; in series [4] (setting [12]), 13.305 ± 0.097 min.

`CC(=O)Oc1c(C)c(C)c2c(c1C)CCC(C)(CCC[C@H](C)CCC[C@H](C)CCCC(C)C)O2` (some centres unmarked) [Tocopherol Acetate]: the concentration for half-maximal inhibition (IC50) at 24 h in [3] and in [5] was greater than 10000 µg/mL each time. Besides, the Agar coagulation time is given as 13.200 ± 0.080 min in [4] (sample concentration 1 % (w/w)); 13.209 ± 0.079 min in series [4] (sample concentration 5 % (w/w)); 13.185 ± 0.072 min in series [4] (setting [10]); 13.167 ± 0.066 min in [4] (setting [11]); 13.192 ± 0.071 min in series [4] (setting [12]).

For the compound `O.O.O=C([O-])CC(O)(CC(=O)[O-])C(=O)[O-].[Na+].[Na+].[Na+]` [Trisodium Citrate Dihydrate], the “B16-F10 cytotoxicity IC50” value in series [6] was 3335.4 µg/mL. Further, in series [7], the “Skin cell 3T3 Cytotoxicity IC50” value is greater than 10000 µg/mL.

Regarding `COC(=O)c1ccc(O)cc1` [methyl p-hydroxybenzate], the IC50 at 24 h was 4850 µg/mL (≈ 31.9 mM) in series [3] and greater than 10000 µg/mL in [5]. The Agar coagulation time in series [4] (sample concentration 1 % (w/w)) is recorded as 13.230 ± 0.084 min; in series [4] (sample concentration 5 % (w/w)) it was 13.197 ± 0.066 min; in series [4] (setting [10]), 13.242 ± 0.087 min; in [4] (setting [11]) it was 13.208 ± 0.100 min; in series [4] (setting [12]) it was 13.203 ± 0.090 min.

Take `Nc1ccc(N)cc1` [p-Phenylenediamine]: the “Agar coagulation time with increase of sample concentration vs control group” value in series [4] was “significantly longer”. Besides, the Agar coagulation time is reported as 16.245 ± 0.468 min in [4] (sample concentration 1 % (w/w)); 22.189 ± 0.782 min in series [4] (sample concentration 5 % (w/w)); 27.500 ± 1.073 min in [4] (setting [10]); 39.489 ± 1.572 min in [4] (setting [11]); 52.689 ± 1.982 min in series [4] (setting [12]).

`O.O.O.O.O.O.O.O.O.[Na+].[Na+].[S-2]` [sodium Sulfide-9-Hydrate]: in [6], the “B16-F10 cytotoxicity IC50” value came to 4187.1 µg/mL. Besides, the “Skin cell 3T3 Cytotoxicity IC50” value in series [7] is greater than 10000 µg/mL.

As to Disodium Lauroamphodiacetate, the “B16-F10 cytotoxicity IC50” value in [8] is 72.8 µg/mL. The “Classification harmful / not harmful to skin by agar coagulation time compared with cell survival analysis” value in [4] is on record as “harmful to skin”. The Agar coagulation time in [4] (sample concentration 1 % (w/w)) stood at 14.356 ± 0.097 min; in series [4] (sample concentration 5 % (w/w)), 20.422 ± 0.106 min; in [4] (setting [10]), 43.333 ± 0.112 min; in series [4] (setting [13]), 87.784 ± 0.176 min. Besides, the “Skin cell 3T3 Cytotoxicity IC50” value in series [9] is 55.6 µg/mL.

For the origin of these results see patent publication US10385378B2, “Method for determining toxic substances by plant gel agar coagulation” (priority 2017, dated 2019).
